Experimental data from patent publication US20130251822A1, “BIOCIDAL ALDEHYDE COMPOSITION” (priority 2011, published 2013).

Experiments:
Pseudomonas aeruginosa = experiment: chlorine dioxide (ClO2) and TTPC versus Pseudomonas aeruginosa, log reduction; type: cell-based; conditions: 10^5 ml
Experimental: A test with chlorine dioxide (ClO2) and TTPC versus Pseudomonas aeruginosa was performed at 10^5 ml with ClO2 of 10 ppm. This alone gave a 1 log reduction in 30 min exposure. TTPC alone at 50 ppm gave a 2 log reduction. The combination of ClO2 and TTPC of 5ppm and 10 ppm gave a 5 log reduction in 30 min.

[1] = cited from earlier work
[2] = effective kill time based upon log reduction, TTPC versus dual chain quaternary ammonium; type: cell-based; conditions: TTPC alone
Experimental: (§1) When TTPC was added to the core glutaraldehyde or OPA as a substitute for dual chain quaternary ammonium the effective kill time was twice as fast (2×) based upon log reduction. Similarly, the TTPC reduced the effective kill time of acid-producing bacteria (APB) by almost 50%. Although the kill speed of TTPC alone was 20% slower than the glut/quat formula of copending U.S. patent application Ser. No. 12/584,648, when incorporated with glutaraldehyde as a substitute for dual chain quaternary ammonium the kill time […] to four times faster, evidencing the synergism of the present combination.

[3] = tested on: acid-producing bacteria (APB); experiment: effective kill time of acid-producing bacteria; type: cell-based
Experimental: as §1

[4] = effectiveness based upon a 5 log reduction in oil frac water; type: cell-based
Excerpt: (§2) As such there is actually a slight increase in planktonic microbes which are more susceptible to biocide/TTPC effects. Individual biocides affect the physiology of the cell quite differently. […] This is an example of enhanced […]. The importance of the environmental parameter cannot be underestimated based upon the foregoing results. TTPC has a similar margin of exposure as the quats used for killing of aerobic organisms. […] The minimum inhibitory concentration (MIC) for the TTPC usage is 50-500 ppm. Therefore it is safe regarding corrosiveness, an important facet in instrument sterilization. […] The faster cidal action is due basically to the chemistry difference between amine quats and phosphonium salts. The ammonium quats have longer alkyl chains. Instead of amine the difference is a phosphonium ion but also importantly is the alkyl chain length. It has been determined that there is an optimal length for anti-bacterial effectiveness. It was dependent upon chain length and attachment moieties. […] Usually the longer chain was better but not in these cases. […] TTPC did. There are great differences between Gram + and Gram − bacteria in their cell walls. […] The Gram − wall is complicated. It has in addition to the wall of G+ an outer membrane of lipopolysaccharide and phospholipids that protects the cell.

[5] = minimum inhibitory concentration (MIC); type: cell-based
Excerpt: as §2

[6] = tested on: sulfur reducing bacteria (SRB); experiment: efficacy on sulfur reducing bacteria; type: cell-based
Excerpt: as §2

[7] = tested on: MRSA, B. subtillis, E coli, pseudomonas aeruginosa, candida; experiment: kill of test microorganisms in allotted time of 30 minutes; type: cell-based
Excerpt: as §2

Compound: [O][Cl+][O-] [ClO2, chlorine dioxide]
- log reduction (Pseudomonas aeruginosa; ClO2 of 10 ppm alone, 30 min exposure): 1 log reduction

Compound: O=Cc1ccccc1C=O [OPA, orthophthalaldehyde]
- disinfection time ([1]; high level disinfectant, 20-22 degrees C.): twelve

Compound: CCCCCCCCCCCCCC[P+](CCCC)(CCCC)CCCC.[Cl-] [TTPC, tributyl tetradecyl phosphonium chloride]
- log reduction (Pseudomonas aeruginosa; TTPC alone at 50 ppm): 2 log reduction
- kill speed slower than the glut/quat formula [2]: 20%
- reduction of effective kill time [3]: ~50%
- effectiveness relative to original glut/quat formula [4]: 2 ×
- minimum inhibitory concentration (MIC) [5]: 50-500 ppm
- efficacy on sulfur reducing bacteria (SRB) [6]: almost equally effective
- kill of all the test bacteria in the allotted time [7]: did

Compound: O=CCCCC=O [glutaraldehyde, Glutaraldehyde]
- residence time for disinfection ([1]; controlled temperature from 20 C to 25-30 C): 45 to 90 min
